Test results: patent publication US20260258397A1, “REAGENTS AND SYSTEMS FOR […]” (priority 2023, published 2026)
Where “and” joins values, the source holds several entries; their conditions need not be identical. Equal entries are not always repeated. Where two headings read alike, the source gives them in different places.

How the values were obtained:
[1] = Apparent Tm of HAB1 variants by thermal challenge and yeast surface display of PYR1^M; format: physicochemical; details: YSD of PYR1^M, 500 nM ABA, 20 nM HAB1 variant
Method: (§1) Except where noted, all proteins were expressed as N-terminal 6×His-MBP fusions primarily using the medium and method as described in ref. 17. For crystallographic structures, PYL2 and ΔN-HAB1^T+ were expressed in E. coli and purified as described previously 27. Assays for phosphatase activity and apparent Tm, measured via thermal challenge using yeast surface display were performed essentially as previously described 17.
Citrate-buffered saline was first prepared (CBS: 20 mM sodium citrate, 147 mM NaCl, 4.5 mM KCl). A portion of this CBS was removed and this aliquot was made into CBS^+++ by addition of freshly dissolved DTT to 1 mM, TCEP pH 8.0 to 1 mM, and MnCl2 to 10 mM followed by pH adjustment to 8.0 using 1 M sodium hydroxide. CBS^+++ was then sterile filtered and placed on ice. A further portion of CBS was removed and the above reagents were added in addition to bovine serum albumin at 0.2% w/v to produce CBSFF^+++, followed by adjustment of pH to 8.0 with 1 M sodium hydroxide and the solution was again sterile filtered and placed on ice. The remainder (and bulk) of the CBS was used to produce CBSF by addition of 0.1% w/v BSA with adjustment of pH to 8.0 using 1 M sodium hydroxide, and this solution was also sterile filtered, and 25 mL were retained at room temperature, with the bulk of the solution transferred to ice.
Determination of apparent Tm was performed using thermal melt. 130 AL of the ice-cold ammonium sulfate precipitates of HAB variants MBP-636 (“WT”), ΔN-HAB1^T+, MBP-724, MBP-725, and MBP-726 were pelleted in a microcentrifuge for 5 minutes at 17,000 g.
The supernatant was removed by pipette, discarded, and the pellet resuspended in an equivalent volume of ice-cold CBS^+++. Zeba™ spin desalting columns (Thermo) were equilibrated with CBS^+++ and the resuspended HABs were desalted and placed on ice. Each HAB was diluted to 400 nM concentration in CBS^+++ and aliquoted into PCR tubes at a 50 μL volume. These tubes were distributed into the blocks of a pair of Eppendorf Mastercycler X50i thermocyclers programmed for a thermal gradient as follows (in ° C.): (Machine #1 Gradient 30.0 to 60.0-30.0, 35.4, 39.3, 46.8, 50.6, 54.5, 60.0, Machine #2 Gradient 65.0 to 95.0-65.0, 70.4). The HAB aliquots were held at these temperatures for 30 minutes, followed by cooling to 4° C. in the thermocycler blocks. Once the aliquots had cooled, they were transferred to racks on ice and SO AL of CBSFF^+++ was added, such that each HAB was now at a concentration of 200 nM (10X) in CBSF^+++. The heat treated HAB aliquots were left on ice until the remainder of the labeling reactions were set up, about 1 hour. Labeling reactions were performed, measured, and analyzed as described previously (Steiner et al. 2020).

[2] = Phosphatase activity of 6xHis-MBP-ΔN-HAB1 variants using p-NPP; format: biochemical; details: error 1 SEM
From the text: FIG. 8: Assessment of stabilized, inactivated 6×His-MBP-ΔN-HAB1 variants. Experiments were repeated on two separate days using independently generated batches of protein. Error bars indicate 1 SD of 3 measurements. Sets of mutations for each variant are noted in Table 7. […] Fluorescence here refers to streptavidin-phycoerythrin.
as §1

PYR1^M/ΔN-HAB1^T+ = target: T1, PYR1^M/ΔN-HAB1^T+ (Arabidopsis thaliana, UniProt O49686, H60P/N90S); assay: PYR1 ELISA-like plate assay, immobilized PYR1^M with biotinylated ΔN-HAB1^T+; format: binding; details: for Amax [AU 450 nm]: global parameter
T1 construct: made in house; host or cells: E. coli
Method: PYR1 was immobilized overnight in clear plates, blocked with KPL milk diluent in buffer CBS ^17 (CBSM). All binding reactions were performed using CBSM. Detection was performed via binding a streptavidin-HRP conjugate to biotinylated ΔN-HAB1^T+ followed by incubation with a commercial TMB reagent. Lower limits of detection (LODs) were determined by linear regression of the response data in the low linear range using the formula LOD=3σy/m, where m is the slope of the response line and σy is the standard error of the y intercept using data combined from biological replicates.
Unconjugated 6×His-MBP-PYR1 variants were immobilized to Microlon clear plates (655081) using 100 μL of CBS without pH modification, at a protein concentration of 100 μg mL^−1, or 1.57 AM at 4° C. overnight. Wells assigned as no PYR controls received only CBS. Plates were sealed using Microseal B adhesive sealers (BioRad MSB-1001). The following day, the solutions were decanted by flicking and all wells were washed twice with 300 μL of CBS. Blocking was performed using 300 μL of KPL milk diluent/concentrate (SeraCare 5140-0011) diluted 1:20 according to manufacturer's protocol, hereafter referred to as CBSM, incubated at room temperature for 2 hours, during which time all other components of the assays were diluted and assembled in 96 well PCR plates (Biorad HSP9601). Binding reactions were assembled from 88 μL of CBSM, 2 AL of 50× concentrate of ligand, dissolved in anhydrous ethanol for ABA, or anhydrous DMSO for all other compounds, with 10 μL of HAB to be added. Blocked plates were decanted by flicking and were washed twice with 300 μL of CBSM, followed by vigorous tamping on a pad of paper towels. The sole exception to the pre-assembly was biotinylated ΔN-HAB1^T+, where 130 AL of ammonium sulfate precipitate was pelleted at 17,000 g for 10 minutes, and the supernatant removed. The pellet was stored on ice until the blocked and washed plates were ready to receive the binding reactions. ΔN-HAB1^T+ was exchanged into CBSM with 1 mM DTT and 1 mM TCEP (CBSM++) using Zeba™ spin desalting columns (Thermo) were equilibrated with CBSM++. ΔN-HAB1^T+ was diluted to 10× the final binding reaction concentration and was immediately added to the pre-assembled assays in PCR plates, which were mixed by pipetting and transferred to the washed, blocked Microlon plates. Microlon plates were transferred to a plate shaker (Heidolph Titramax 1000) for 30 minutes at room temperature with shaking at 800 rpm. Plates were decanted by flicking and were washed three times with 300 μL of CBSM, followed by vigorous tamping on a pad of paper towels. Detection was enabled by addition of 100 μL of streptavidin-horseradish peroxidase (Thermo, SA10001), diluted 1:25,000 into CBSM, incubated in the above plate shaker for 10 minutes. This was decanted by flicking and washed three times with 300 AL of CBSM and by vigorous tamping on a pad of paper towels. Bound HAB was detected through addition of 50 μL 1-Step™ Ultra TMB-ELISA Substrate Solution (Thermo, 34028), incubated in the above plate shaker for 15 minutes (PYR1^M(N90S/H60P) with ABA, PYR1 ^WIN-M and PYR1^4F-M. in specificity assays to avoid overdevelopment of positive control), or for 30 minutes (PYR1^N90S/MANDI with mandipropamid, and PYR1^WIN-M and PYR1^4F-M under ligand titrations). TMB development was quenched by addition of 50 μL of 2M sulfuric acid and plates were read at 450 nm using a Biotek Synergy H1 Hybrid multimode plate reader. Estimates of Kd,eff were performed using Graphpad Prism 8.4.3 using the specific binding with Hill slope nonlinear regression function. Best fits for Kd1 and Kd2 were determined from global nonlinear fitting of the ELISA data using a custom script written in MatLab 2019b.

[3] = test system: PYR1 mutant receptors (ligand-dependent binding to HAB1); assay: Yeast two-hybrid screens and optimization for organophosphate sensors; format: cell-based, Arabidopsis
Method: Surviving cells were collected and used in subsequent positive selections for ligand-responsive receptors on SD,-Leu,-Trp,-Ura media supplemented with a specific test chemical (100 μM) for responsiveness to any of the 10-member panel of organophosphate compounds: diazinon, pirimiphos-methyl, azinphos-ethyl, dimethoate, chlorfenvinphos, disulfoton, parathion-methyl, bromophos-methyl, malathion, and monocrotophos; all compounds were purchased form (Sigma-Aldrich). Isolated colonies were tested by regrowth on ligand-containing media and by dose response using X-gal staining and Sanger sequenced (see FIG. 13a-d).
Recombination-based mutagenesis of hit receptors was used to generate subsequent molecular diversity for selection-based optimization experiments, using the same general strategy across all scaffolds utilized. […] The resulting shuffled DNA fragments were cloned into pBD, transformed into E. coli, colonies collected, and plasmids extracted.

T1 sequence (O49686 whole entry H60P/N90S, other chains not shown): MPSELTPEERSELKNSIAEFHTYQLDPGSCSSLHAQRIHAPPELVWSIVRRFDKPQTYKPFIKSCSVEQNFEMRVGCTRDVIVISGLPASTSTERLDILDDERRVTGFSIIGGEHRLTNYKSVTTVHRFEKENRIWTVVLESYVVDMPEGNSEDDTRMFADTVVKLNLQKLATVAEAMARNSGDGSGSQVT

724: stabilized dead 6 × His-MBP-ΔN-HAB1 variant with D243A instead of D204A [compound 724]
Tm, app (° C.) ([1]; Biorep 1): 54.1 °C | Tm, app (° C.) ([1]; Biorep 2): 44.8 °C | Phosphatase Activity (% of 636 at 50 mM p-NPP) ([2]; Biorep 1): 0.22 ± 0.005% | Phosphatase Activity (% of 636 at 50 mM p-NPP) ([2]; Biorep 2): 0.01 ± 0.001%

725: 6 × His-MBP-ΔN-HAB1 (C186S, D199A, D204A, S209V, D287E, S292N, S342A, N377A, N439S) [compound 725]
Tm, app (° C.) ([1]; Biorep 1): 50.7 °C | Tm, app (° C.) ([1]; Biorep 2): 45.5 °C | Phosphatase Activity (% of 636 at 50 mM p-NPP) ([2]; Biorep 1): 0.25 ± 0.01% | Phosphatase Activity (% of 636 at 50 mM p-NPP) ([2]; Biorep 2): 0.003 ± 0.004%

CC1=CC(=O)CC(C)(C)[C@@]1(O)/C=C/C(C)=C\C(=O)O [ABA, abscisic acid]
Kd (PYR1^M/ΔN-HAB1^T+; global nonlinear fit, PYR1^M/ABA/ΔN-HAB1^T+ system, Biorep 1, read-out: KD1): 820 nM | Kd (PYR1^M/ΔN-HAB1^T+; global nonlinear fit, PYR1^M/ABA/ΔN-HAB1^T+ system, Biorep 2, read-out: KD1): 780 nM | Kd (PYR1^M/ΔN-HAB1^T+; global nonlinear fit, PYR1^M/ABA/ΔN-HAB1^T+ system, Biorep 3, read-out: KD1): 2090 nM | Kd (PYR1^M/ΔN-HAB1^T+; global nonlinear fit, KD2 = binding constant of HAB1 variant (ΔN-HAB1^T+) for PYR1^M with ABA, Biorep 1, read-out: KD2): 8 nM | Kd (PYR1^M/ΔN-HAB1^T+; global nonlinear fit, KD2 = binding constant of HAB1 variant (ΔN-HAB1^T+) for PYR1^M with ABA, Biorep 2, read-out: KD2): 4 nM | Kd (PYR1^M/ΔN-HAB1^T+; global nonlinear fit, KD2 = binding constant of HAB1 variant (ΔN-HAB1^T+) for PYR1^M with ABA, Biorep 3, read-out: KD2): 2 nM | Amax [AU 450 nm] (PYR1^M/ΔN-HAB1^T+; PYR1^M/ABA/ΔN-HAB1^T+ system, Biorep 1): 2 AU 450 nm | Amax [AU 450 nm] (PYR1^M/ΔN-HAB1^T+; PYR1^M/ABA/ΔN-HAB1^T+ system, Biorep 2): 2.8 AU 450 nm | Amax [AU 450 nm] (PYR1^M/ΔN-HAB1^T+; PYR1^M/ABA/ΔN-HAB1^T+ system, Biorep 3): 2 AU 450 nm | lower limit of detection (LOD) (PYR1^M/ΔN-HAB1^T+; optimized ELISA-like system, PYR1^M): 2 nM and 0.7 ng/mL | Kd (PYR1^M/ΔN-HAB1^T+; optimized ELISA-like system, PYR1^M, read-out: effective Kd): 9.7 nM

CCOP(=O)(OCC)O/C(=C\Cl)c1ccc(Cl)cc1Cl [chlorfenvinphos]
affinity of receptors obtained, but not lower ([3]; after optimization): 10 µM

CNC(=O)CSP(=S)(OC)OC [dimethoate]
affinity of receptors obtained, but not lower [3]: 10 µM

WT (636): 6 × His-MBP-ΔN-HAB1 (C186S, C274S)
Tm, app (° C.) ([1]; Biorep 1): 44.8 °C | Tm, app (° C.) ([1]; Biorep 2): 38.1 °C | Phosphatase Activity (% of 636 at 50 mM p-NPP) ([2]; Biorep 1): 100 ± 0.4% | Phosphatase Activity (% of 636 at 50 mM p-NPP) ([2]; Biorep 2): 100 ± 0.8%
